Measured values reported in patent US4000196A, “1,1,3-Trisubstituted hydroxyguanidines” (E. I. Du Pont de Nemours and Company, priority 1974, dated 1976).
Each block holds one compound with its values, some of them ahead of it.

Experiments:
[1] = Chelation of metal ions in aqueous solutions; format: physicochemical
Method: (§1) The 1,1,3-trisubstituted hydroxyguanidines of the invention chelate metal ions in aqueous solutions, and the chelate complexes can then be extracted by a solvent such as 1-butanol. The following is an example.
(§2) Aqueous solutions of cobaltous chloride and cupric acetate were prepared by dissolving 0.5 g in separate 5 ml portions of water. One ml of each solution was mixed with 1 ml of an aqueous methanol solution of 1,3-dimethyl-1-benzyl-2-hydroxyguanidine made by dissolving 0.2 g of the hydroxyguanidine in 5 ml methanol and 5 ml water. The addition was followed by an immediate color change.

[2] = system: tetrabenazine-induced ptosis in mice; assay: Prevention of tetrabenazine-induced sedation and depression in mice (relief of ptosis); format: in vivo, Carworth CF1 S female mice; settings: Mus musculus, 1 h; oral; 5, 25 and 125 mg/kg; tetrabenazine 32 mg/kg i.p. 30 min later; read 30 min after tetrabenazine; groups of 10 female mice; read-out: ptosis ED50, i.e., the dose which blocked ptosis in 50% of the mice
Method: This mouse test is predictive of human antidepressant response (Everett, G.M., "The Dopa Response Potentiation Test and Its Use In Screening for Antidepressant Drugs", pp. 164-167 in "Antidepressant Drugs", Proceeding of the First International Symposium, S. Garattini and M. N. G. Dukes, eds., 1967).
Groups of 10 Carworth CF1 S female mice, 18-21 g each, were fasted 1.5 hours and were intubated with a hydroxyguanidine as antagonist to tetrabenazine at oral doses of 5, 25 and 125 mg/kg in 0.20 ml of 1% methyl cellulose (Methocel). Thirty minutes later the mice were challenged with tetrabenazine, 32 mg/kg intraperitoneally (dissolved in 0.20 ml of 0.05M KCl at pH 2.0). One hour after the hydroxyguanidine compound (30 minutes after tetrabenazine) the mice were examined for signs of exploratory activity and ptosis (eye-lid closure). Normal exploratory activity (relief from sedation) was recorded when a mouse lifted by the tail from a group of 10 in a testing box and placed on a stainless steel testing box lid (12.5 inches × 8 inches with 0.33 inch mesh) either turned its head horizontally 30° or moved to the edge of the screen within 10 seconds after being placed on the screen. Relief from ptosis was recorded when exactly 2 seconds after placing the mouse facing the observer, lid closure was less than 50% in both eyes. […]

[3] = Chelation of cobalt ions (cobaltous chloride) in aqueous solution; format: physicochemical; settings: cobaltous chloride in water mixed with aqueous methanol solution of hydroxyguanidine
Method: as §1, §2

[4] = Chelation of copper ions (cupric acetate) in aqueous solution; format: physicochemical; settings: cupric acetate in water mixed with aqueous methanol solution of hydroxyguanidine
Method: as §1, §2

[5] = Complex formation with titanium (tetraisopropyl titanate); format: physicochemical; settings: methanol solution of tetraisopropyl titanate

chelating of metal ions ([1]; aqueous solutions): Chelating also occured
Compound: CNC(=NO)N(C)c1ccccc1 [Example 2, 1-Phenyl-1,3-dimethyl-2-hydroxyguanidine]

Compound: CCNC(=NO)N(C)c1ccccc1 [Example 3, 1-Phenyl-1-methyl-3-ethyl-2-hydroxyguanidine]
ED50 [2]: 2.7 mg/kg

immediate color change of cobalt solution [3]: from red to pink
immediate color change of copper solution [4]: from blue to green
Compound: CNC(=NO)N(C)Cc1ccccc1 [Example 4, 1-Benzyl-1,3-dimethyl-2-hydroxyguanidine]
complex of titanium with the hydroxyguanidine [5]: a bright yellow complex of titanium with the hydroxyguanidine was formed
extraction of the metal ion from water into 1-butanol ([1]; cobalt and copper solutions shaken with 2-3 ml of 1-butanol): colored organic layers, indicative of extraction of the metal ion from the water

Compound: CCNC(=NO)N(C)Cc1ccccc1 [Example 5, 1-Benzyl-1-methyl-3-ethyl-2-hydroxyguanidine]
ED50 [2]: 19 mg/kg
